The source of these data is patent US12077503B2, “Substituted cyclic amides and their use as herbicides” (FMC CORPORATION, priority 2015, dated 2024).

Structures are written as SMILES.

Holding throughout (assay type): in vivo
The subject of test [1] is Kochia (Kochia scoparia). The experiment in a line: Test A preemergence. The settings on record: Bassia scoparia, pre-emergence, 240 h; for pest or weed control at 125 g/ha: 125 g ai/ha, Preemergence, visual injury rating after approximately 10 d, read-out: Kochia plant response rating (0 to 100 scale, 0 is no effect, 100 is complete control); for pest or weed control at 500 g/ha: 500 g ai/ha, preemergence, visual injury rating about 10 d after treatment, 0 to 100 scale (0 no effect, 100 complete control), read-out: Kochia plant response rating. The procedure, abridged:
(§1)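 In a loam soil and sand blend, planted seeds got a preemergence directed soil spray, and young plants at the one- to two-leaf stage, 2–10 cm high, got a postemergence application; ~10 d greenhouse hold; injury rated visually, 0 = none, 100 = complete control.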

The subject of test [2] is barnyardgrass (Echinochloa crus-galli). The experiment in a line: Test A preemergence. The settings on record: Echinochloa crus-galli, pre-emergence, 240 h; for pest or weed control at 125 g/ha: 125 g ai/ha, Preemergence, visual injury rating after approximately 10 d, read-out: Barnyardgrass plant response rating (0 to 100 scale, 0 is no effect, 100 is complete control); for pest or weed control at 500 g/ha: 500 g ai/ha, preemergence, visual injury rating about 10 d after treatment, 0 to 100 scale (0 no effect, 100 complete control), read-out: Barnyardgrass plant response rating. In outline: as §1

The subject of test [3] is giant foxtail (Setaria faberii). The test can be described thus: Test A preemergence. As to conditions: Setaria faberi, pre-emergence, 240 h; for pest or weed control at 125 g/ha: 125 g ai/ha, Preemergence, visual injury rating after approximately 10 d, read-out: Foxtail, Giant plant response rating (0 to 100 scale, 0 is no effect, 100 is complete control); for pest or weed control at 500 g/ha: 500 g ai/ha, preemergence, visual injury rating about 10 d after treatment, 0 to 100 scale (0 no effect, 100 complete control), read-out: Foxtail, Giant plant response rating. In outline: as §1

Test [4] relates to pigweed (Amaranthus retroflexus). The experiment in a line: Test A preemergence. As to conditions: Amaranthus retroflexus, pre-emergence, 240 h; for pest or weed control at 125 g/ha: 125 g ai/ha, Preemergence, visual injury rating after approximately 10 d, read-out: Pigweed plant response rating (0 to 100 scale, 0 is no effect, 100 is complete control); for pest or weed control at 500 g/ha: 500 g ai/ha, preemergence, visual injury rating about 10 d after treatment, 0 to 100 scale (0 no effect, 100 complete control), read-out: Pigweed plant response rating.

Test [5] concerns ragweed (common ragweed, Ambrosia elatior). The test can be described thus: Test A preemergence. The settings on record: Ambrosia artemisiifolia, pre-emergence, 240 h; for pest or weed control at 125 g/ha: 125 g ai/ha, Preemergence, visual injury rating after approximately 10 d, read-out: Ragweed plant response rating (0 to 100 scale, 0 is no effect, 100 is complete control); for pest or weed control at 500 g/ha: 500 g ai/ha, preemergence, visual injury rating about 10 d after treatment, 0 to 100 scale (0 no effect, 100 complete control), read-out: Ragweed plant response rating. In outline:
as §1

The test system of test [6] is ryegrass, Italian (Italian ryegrass, Lolium multiflorum). The test can be described thus: Test A preemergence. The settings on record: Lolium multiflorum, pre-emergence, 240 h; for pest or weed control at 125 g/ha: 125 g ai/ha, Preemergence, visual injury rating after approximately 10 d, read-out: Ryegrass, Italian plant response rating (0 to 100 scale, 0 is no effect, 100 is complete control); for pest or weed control at 500 g/ha: 500 g ai/ha, preemergence, visual injury rating about 10 d after treatment, 0 to 100 scale (0 no effect, 100 complete control), read-out: Ryegrass, Italian plant response rating. In outline:
as §1

Test [7] concerns Galium (catchweed bedstraw, Galium aparine). The experiment in a line: Test A postemergence. The settings on record: Galium, post-emergence, 240 h, 125 g ai/ha, Postemergence; visual injury after approximately 10 d; 0 to 100 scale where 0 is no effect and 100 is complete control; read-out: Plant response rating, Galium. In outline:
as §1

Test [8] relates to Kochia (Kochia scoparia). The test can be described thus: Test A postemergence. The settings on record: Bassia scoparia, post-emergence, 240 h, 125 g ai/ha, Postemergence; visual injury after approximately 10 d; 0 to 100 scale where 0 is no effect and 100 is complete control; read-out: Plant response rating, Kochia. In outline:
as §1

Test [9] deals with barnyardgrass (Echinochloa crus-galli). The experiment in a line: Test A postemergence. As to conditions: Echinochloa crus-galli, post-emergence, 240 h, 125 g ai/ha, Postemergence; visual injury after approximately 10 d; 0 to 100 scale where 0 is no effect and 100 is complete control; read-out: Plant response rating, Barnyardgrass. In outline: as §1
In test [10] the test system is blackgrass (Alopecurus myosuroides). The test can be described thus: Test A postemergence. As to conditions: Alopecurus myosuroides, post-emergence, 240 h, 125 g ai/ha, Postemergence; visual injury after approximately 10 d; 0 to 100 scale where 0 is no effect and 100 is complete control; read-out: Plant response rating, Blackgrass. In outline: as §1
For a further test, the system named is corn (Zea mays). The experiment in a line: Test A postemergence. As to conditions: Zea mays, post-emergence, 240 h, 125 g ai/ha, Postemergence; visual injury after approximately 10 d; 0 to 100 scale where 0 is no effect and 100 is complete control. In outline: as §1
Test [11] has as its system giant foxtail (Setaria faberii). The experiment in a line: Test A postemergence. As to conditions: Setaria faberi, post-emergence, 240 h, 125 g ai/ha, Postemergence; visual injury after approximately 10 d; 0 to 100 scale where 0 is no effect and 100 is complete control; read-out: Plant response rating, Foxtail, Giant. The procedure, abridged: as §1
Test [12] relates to ragweed (common ragweed, Ambrosia elatior). The test can be described thus: Test A postemergence. As to conditions: Ambrosia artemisiifolia, post-emergence, 240 h, 125 g ai/ha, Postemergence; visual injury after approximately 10 d; 0 to 100 scale where 0 is no effect and 100 is complete control; read-out: Plant response rating, Ragweed. In outline: as §1
In test [13] the test system is ryegrass, Italian (Italian ryegrass, Lolium multiflorum). The test can be described thus: Test A postemergence. The settings on record: Lolium multiflorum, post-emergence, 240 h, 125 g ai/ha, Postemergence; visual injury after approximately 10 d; 0 to 100 scale where 0 is no effect and 100 is complete control; read-out: Plant response rating, Ryegrass, Italian. The procedure, abridged: as §1

Test [14] relates to wheat (Triticum aestivum). The test can be described thus: Test A postemergence. The settings on record: Triticum aestivum, post-emergence, 240 h, 125 g ai/ha, Postemergence; visual injury after approximately 10 d; 0 to 100 scale where 0 is no effect and 100 is complete control; read-out: Plant response rating, Wheat. The procedure, abridged:
as §1

`CN1C[C@H](c2cc(F)cc(C(F)(F)F)c2)[C@@H](C(=O)Nc2ccc(F)c(F)c2F)C1=O` [Compound 993]: the pest or weed control at 125 g/ha in the test on Kochia (Kochia scoparia) [1] was found to be 0%; in test [2], 90%; in test [3], 90%; in test [4], 40%; in [5] it was 0%; in [6], 80%. In addition, the pest or weed control at 125 g/ha in test [7] turned out to be 60%; in the test on Kochia (Kochia scoparia) [8], 20%; in test [9], 90%; in test [10] it was 70%; in test [11], 90%; in [12] it was 0%. For the same compound, in test [13], the pest or weed control at 125 g/ha came out at 50%. The pest or weed control at 500 g/ha was found to be 50% in the test with Kochia (Kochia scoparia) [1]; 90% in [2]; 90% in test [3]; 80% in test [4]; 60% in test [5]; 90% in test [6]. Also, the Corn plant response rating (crop injury, 0 = no effect, 100 = complete kill) at 125 g/ha in the test on corn (Zea mays) was found to be 80%. Further, the plant injury at 125 g/ha in test [14] worked out at 50%.

On to `CCOc1cccc([C@H]2CN(C)C(=O)[C@@H]2C(=O)Nc2cccc(F)c2F)c1` [Compound 956], for which the pest or weed control at 125 g/ha with Kochia (Kochia scoparia) [1] turned out to be 90%; in test [2], 100%; in [3], 100%; in test [4], 0%; in test [5] it was 20%; in [6], 40%. Besides, the pest or weed control at 125 g/ha in test [7] worked out at 40%; in the test on Kochia (Kochia scoparia) [8], 30%; in test [9], 90%; in test [10] it was 40%; in test [11] it was 80%; in test [12] it was 20%. In test [13], the pest or weed control at 125 g/ha is 50%. In addition, the pest or weed control at 500 g/ha with Kochia (Kochia scoparia) [1] was 90%; in test [2] it was 100%; in [3], 100%; in test [4] it was 0%; in test [5], 80%; in [6], 90%. In the test on corn (Zea mays), the Corn plant response rating (crop injury, 0 = no effect, 100 = complete kill) at 125 g/ha amounted to 50%. The plant injury at 125 g/ha in test [14] amounted to 30%.
